Laboratory results: PMC5584945, “Evaluation of robenidine analog NCL195 as a novel broad-spectrum antibacterial agent” (PLoS ONE, 2017)

Tests used:
[1] = LogD by gradient HPLC chromatographic method; assay type: physicochemical; details: pH 7.4
S. aureus Xen29 = experiment: Minimum bactericidal concentration (MBC); assay type: cell-based; details: Staphylococcus aureus, 99.9% colony count reduction
Method: The tray was covered with Breathe-Easy sealing membrane (Z380059, Sigma-Aldrich) and incubated for 16 h overnight at 35°C in an EnSpire Multimode Plate Reader 2300 (PerkinElmer), with data collected every 20 min and 2 sec agitation at 60 rpm between data (A600 nm) acquisitions. The experiment was repeated using the luminescent D39LUX strain on a Cytation 5 Cell Imaging Multi-Mode Reader (BioTek) using IsoplateTM-96 F tray PerkinElmer, 6005020). Kill kinetic assays on S. aureus Xen29 was carried out essentially as described for MIC determination on Cytation 5 Cell Imaging Multi-Mode Reader.
In order to determine the MBC of each compound against S. pneumoniae D39 or S. aureus Xen29, 10 μl aliquots from each duplicate well from the MIC assays (starting from the MIC for each compound) was inoculated onto a HBA plate and incubated at 37°C (+ 5% CO2 for S. pneumoniae D39). Plates were examined at 24 and 48 h and the MBC was recorded as the lowest concentration of each test compound at which a 99.9% colony count reduction was observed on the plate.

[2] = test system: vancomycin-resistant enterococci (VRE); experiment: MIC, broth micro-dilution (CLSI); assay type: cell-based, enterococci (porcine isolates); details: for MIC50 / MIC90 / MIC: Enterococcus, VRE
MDBK = experiment: Real-time cell viability, RealTime-Glo MT; assay type: cell-based, bovine; details: 2 or 8 μg/ml, up to 20 h post-treatment
Excerpt: In order to ensure minimal off target mammalian cell cytotoxicity, we assayed NCL812, NCL195 and NCL219 for in vitro cytotoxicity using a panel of adherent mammalian cell lines: Caco-2 (human colorectal adenocarcinoma cell line), HEL 299 (non-cancerous human lung fibroblast cell line), Hep G2 (human hepatocellular carcinoma cell line), MDBK (normal bovine kidney cell line) and MCF7 (human mammary gland adenocarcinoma cell line). Cell lines were maintained in Dulbecco’s Modified Eagle’s Medium (DMEM; […] After 24 h incubation, media was removed, washed once with medium without antibiotics and fresh medium supplemented with 10% (vol/vol) FBS was added. […] Following exposure for 24 h, WST-1 reagent was added to each well at a final concentration of 10%. […] The IC50 value for each compound against each cell line was determined via non-linear regression (three parameters) using GraphPad Prism v6 software. The robustness of assays was confirmed with selected cell lines (Hep G2 and MDBK) seeded onto a 96–well Microwell Nunclon Delta Surface plate (Thermo Scientific Nunc; Cat No: 136101) at 5 × 10^4 cells per well.

S. aureus = experiment: MIC, broth micro-dilution (CLSI); assay type: cell-based, Staphylococcus aureus; details: 10% FBS versus no FBS
[3] = S3 Table isolates, absence of FBS

Cc1ccc(/C=N/Nc2cc(N/N=C/c3ccc(C)cc3)nc(N)n2)cc1 [NCL195, 4,6-bis(2-((E)-4-methylbenzylidene)hydrazinyl)pyrimidin-2-amine]
4.5: chromatographic logD [1]
2 to 4 µg/mL: MIC range ([2]; 20 isolates) | MIC range [2, 3]
16 µg/mL: MIC50 ([2]; S3 Table isolates, 10% FBS) | MIC ([2]; VRE 1 (49 FR), 10% FBS) | MIC ([2]; VRE 2 (53 FR), 10% FBS) | MIC ([2]; VRE 3 (55 FR), 10% FBS) | MIC ([2]; VRE 4 (57 FR), 10% FBS) | MIC ([2]; VRE 6 (59 FR), 10% FBS) | MIC ([2]; VRE 9 (61 FR), 10% FBS) | MIC ([2]; VRE 10 (62 FR), 10% FBS) | MIC ([2]; VRE 11 (284 G), 10% FBS) | MIC ([2]; VRE 12 (290 G), 10% FBS) | MIC ([2]; VRE 13 (251 G), 10% FBS) | MIC ([2]; VRE 15 (63 FR), 10% FBS) | MIC ([2]; VRE 16 (60 FR), 10% FBS) | MIC ([2]; VRE 18 (69 W), 10% FBS) | MIC ([2]; VRE 19 (70 W), 10% FBS)
no measurable effect on cell viability: Effect on cell viability (real-time) (MDBK)
16 to 32 µg/mL: MIC range ([2]; S3 Table isolates, 10% FBS)
2 µg/mL: MBC (S. aureus Xen29) | MIC50 [2, 3] | MIC ([2]; VRE 2 (53 FR), absence of FBS) | MIC ([2]; VRE 3 (55 FR), absence of FBS) | MIC ([2]; VRE 4 (57 FR), absence of FBS) | MIC ([2]; VRE 12 (290 G), absence of FBS) | MIC ([2]; VRE 13 (251 G), absence of FBS) | MIC ([2]; VRE 14 (252 G), absence of FBS) | MIC ([2]; VRE 15 (63 FR), absence of FBS) | MIC ([2]; VRE 16 (60 FR), absence of FBS) | MIC ([2]; VRE 17 (45 FR), absence of FBS) | MIC ([2]; VRE 18 (69 W), absence of FBS) | MIC ([2]; VRE 19 (70 W), absence of FBS)
4 µg/mL: MIC90 [2, 3] | MIC ([2]; VRE 1 (49 FR), absence of FBS) | MIC ([2]; VRE5 (58 FR), absence of FBS) | MIC ([2]; VRE 6 (59 FR), absence of FBS) | MIC ([2]; VRE 7 (270 G), absence of FBS) | MIC ([2]; VRE 8 (277 G), absence of FBS) | MIC ([2]; VRE 9 (61 FR), absence of FBS) | MIC ([2]; VRE 10 (62 FR), absence of FBS) | MIC ([2]; VRE 11 (284 G), absence of FBS) | MIC ([2]; VRE 20 (78 W), absence of FBS)
32 µg/mL: MIC90 ([2]; S3 Table isolates, 10% FBS) | MIC ([2]; VRE5 (58 FR), 10% FBS) | MIC ([2]; VRE 7 (270 G), 10% FBS) | MIC ([2]; VRE 8 (277 G), 10% FBS) | MIC ([2]; VRE 14 (252 G), 10% FBS) | MIC ([2]; VRE 17 (45 FR), 10% FBS) | MIC ([2]; VRE 20 (78 W), 10% FBS)
4 fold: Fold increase of MIC range in the presence of 10% FBS ([2]; 10% FBS versus no FBS) | Fold increase of MIC range in the presence of 10% FBS (S. aureus)
